Key:
mice = test: Minimum doses for expression of general symptoms after single oral administration; type: in vivo
[1] = test system: rat in which renal insufficiency was induced by adenine; test: Suppression of creatinine increase in adenine-induced renal insufficiency model rats; type: in vivo, Wistar-strain male rats
Description: Adenine was orally administered to Wistar-strain male rats of eight weeks age to prepare a renal insufficiency model. […] Further, a value of creatinine clearance (mL/kg/hr) decreased from 315.3±13.8 to 25.7±4.4 whereupon renal functions lowered to about one-tenth.
From the 7th to the 17th days from administration of adenine, the test drug was orally administered to the rat in which renal insufficiency was induced by adenine. The creatinine levels in blood before and after the administration of the test drug were compared whereupon a suppressive action of the test drug to an increase of creatinine accompanied by the progress of renal insufficiency was checked. In a control group where no test drug was administered, an increase of creatinine to an extent of 4.37±0.76 mg/dL was noted while, in a group to which (S)-(−)-5-hydroxy-1-methylhydantoin (200 mg/kg/day) was administered, an increase of creatinine was suppressed to an extent of 2.72±0.55 mg/dL.

[2] = Pharmacokinetics in blood (unchanged compound and metabolites in plasma) in renal insufficiency model rats; type: in vivo; conditions: 100 mg/kg oral once, 23rd day from administration of adenine; compared with R-form and racemate; FIG. 1 and FIG. 2
Experimental: After each 100 mg/kg of (S)-(−)-5-hydroxy-1-methylhydantoin, (R)-(+)-5-hydroxy-1-methylhydantoin, and racemate thereof was orally administered once to the above-mentioned model rats of renal insufficiency (on the 23rd day from administration of adenine), changes in concentration of an unchanged compound and metabolites (metabolite 1: 1-methylimidazolidintrion and metabolite 2: 5-methyloxaluric acid) in plasma were checked.

SD-strain rats = test: Acute toxicity test, single intravenous administration; type: in vivo; conditions: once administered intravenously, SD-strain rats 6 weeks age
Experimental: In an acute toxicity test where (±)-5-hydroxy-1-methylhydantoin was once administered intravenously to SD-strain rats (6 weeks age), there was no dead case even when the dose was 2,000 mg/kg, and so the lethal dose of the unchanged compound was presumed to be not less than 2,000 mg/kg. In the same toxicity test however, a lethal dose of the metabolite 1 was about 150 to 300 mg/kg. […] Furthermore, it was observed that the racemate caused the decrease of general symptoms such as passivity, tactile reaction, pain sensation reaction and ipsilateral flexor reaction at a dose of 200 mg/kg.

CN1C(=O)NC(=O)[C@@H]1O [S-form, (S)-(−)-5-hydroxy-1-methylhydantoin]
dose causing decrease of general symptoms (passivity, tactile reaction, pain sensation reaction, ipsilateral flexor reaction) (mice; mouse, in vivo, po): 500 mg/kg | increase of creatinine in blood ([1]; 200 mg/kg/day oral, 7th to 17th days from administration of adenine, control group 4.37±0.76 mg/dL): 2.72 ± 0.55 mg/dL | suppressive action to renal insufficiency ([1]; adenine renal insufficiency rats, oral, compared with racemate): suppressive action to renal insufficiency the same as the racemate | conversion to metabolites (metabolite 1 and metabolite 2) in plasma [2]: rarely converted to its metabolites

CN1C(=O)NC(=O)C1O (racemic) [racemate, (±)-5-hydroxy-1-methylhydantoin, reference compound]
dose causing decrease of general symptoms (passivity, tactile reaction, pain sensation reaction, ipsilateral flexor reaction) (mice; general symptoms observation, single oral administration to mice): 200 mg/kg | lethal dose (SD-strain rats): not less than 2,000 mg/kg

CN1C(=O)NC(=O)C1=O [metabolite 1, 1-methylimidazolidintrion]
lethal dose (SD-strain rats): 150 to 300 mg/kg

CN1C(=O)NC(=O)[C@H]1O [R-form, (R)-(+)-5-hydroxy-1-methylhydantoin]
dose for expression of general symptoms as compared with the S-form (mice; mouse, in vivo, po): one-fifth

Source: patent US20060241163A1, “Optically active (S)-hydantoin derivative” (priority 2005, published 2006)
